From patent US12385008B2, “Method for producing retinal tissue” (SUMITOMO PHARMA CO., LTD., priority 2015, dated 2025)

How the values were obtained:
[1] = system: human iPS cells (1231A3 strain); assay: Microscopic observation of collapse of cell aggregates from human iPS cells (Example 2); type: cell-based; conditions: 10 days after start of suspension culture, FIG. 2
Description: (§1) iPS cells derived from human peripheral blood derived-mononuclear cells established from ePMBC (registered trade mark) of Cellular Technology Limited (1231A3 strain, Kyoto University) were used. Undifferentiated maintenance culture of these iPS cells under feeder cell-free conditions was performed according to the method described in “Nakagawa, M. et. al., Sci. Rep. 2014 Jan. 8; 4: 3594”. As the medium, “StemFit (registered trade mark)” AK03 medium (Ajinomoto Co., Inc.) was used and iMatrix-511 (Nippi) was used as a culture substrate.
Production of retinal tissue including a step of culturing in a medium containing an MEK inhibitor, a PKC inhibitor or a Sonic hedgehog signal transduction pathway activating substance was performed as follows. Human iPS cells under culture for maintaining an undifferentiated state were treated with 0.5×TrypLE select (mixture of equal amounts of TrypLE select (Life Technologies) and 0.5 mM EDTA/PBS(−)), scraped using a cell scraper, dispersed to single cells by pipetting, seeded in a 6-well culture plate coated with iMatrix-511 (0.5 μg/cm^2) at 1.2×10^4 cells per 1 well, and cultured in a StemFit medium containing Y-27632 (Wako Pure Chemical Industries, Ltd.) (final concentration 10 μM) as a ROCK inhibitor under 37° C., 5% CO2 conditions. At 2 days after the seeding, PD0325901 (SIGMA) (final concentration 1 μM) as an MEK inhibitor and Go6983 (SIGMA) (final concentration 2 μM) as a PKC inhibitor were added and the mixture was cultured for 5 days, or at 6 days after seeding, PD0325901 (final concentration 1 μM) was added and the mixture was cultured for […] (completion of step 1). The cells cultured in the medium containing the above-mentioned inhibitors were treated with 0.5×TrypLE select, scraped using a cell scraper, dispersed to single cells by pipetting, seeded in a 96-well culture plate (PrimeSurface 96 V-BOTTOM plate, SUMITOMO BAKELITE CO., LTD.) at 1.0×10^4 cells per 1 well, and cultured in 100 μl of a gfCDM+KSR medium [45% IMDM (Life Technologies), 45% F12 (Life Technologies), 10% KSR (Life Technologies), 1% Chemically defined lipid concentrate (Life Technologies), 450 μM 1-Thioglycerol (SIGMA)] supplemented with Y-27632 (final concentration 20 μM) (second step SAG(−)) or seeded in a gfCDM+KSR medium supplemented with SAG (Enzo) (final concentration 30 nM) (second step SAG(+)) and cultured in suspension under 37° C., 5% CO2 conditions. Cell aggregates were formed by 2 days after the start of the suspension culture (completion of step 2). […]

[2] = system: human iPS cells (1231A3 strain); assay: Pax6 and Chx10 immunostaining of cell aggregates from human iPS cells (Example 2); type: cell-based; conditions: first step MEK inhibitor ± PKC inhibitor; second step with 30 nM SAG; BMP4 1.5 nM from day 3; 22 days after start of suspension culture; FIG. 3
Description: as §1
Production of retinal tissue including a step of culturing in a medium containing an MEK inhibitor, a PKC inhibitor or a Sonic hedgehog signal transduction pathway activating substance was performed as follows. Human iPS cells under culture for maintaining an undifferentiated state were treated with 0.5×TrypLE select (mixture of equal amounts of TrypLE select (Life Technologies) and 0.5 mM EDTA/PBS(−)), scraped using a cell scraper, dispersed to single cells by pipetting, seeded in a 6-well culture plate coated with iMatrix-511 (0.5 μg/cm^2) at 1.2×10^4 cells per 1 well, and cultured in a StemFit medium containing Y-27632 (Wako Pure Chemical Industries, Ltd.) (final concentration 10 μM) as a ROCK inhibitor under 37° C., 5% CO2 conditions. […]

Compound | collapse of aggregates ([1]; non-treatment in first step, second step SAG(+) (30 nM SAG)) | collapse of aggregates ([1]; 1-day treatment in first step (1 μM), second step SAG(+) (30 nM SAG)) | collapse of aggregates ([1]; 1-day treatment in first step (1 μM), second step SAG(−)) | collapse of aggregates ([1]; 5-day treatment in first step (PD0325901 1 μM, Go6983 2 μM), irrespective of presence or absence of SAG in second step) | Pax6, Chx10 (retinal progenitor cell markers) co-positive cells in cell aggregates [2]
CNC1CCC(N(Cc2cccc(-c3ccncc3)c2)C(=O)c2sc3ccccc3c2Cl)CC1 (centres unmarked) [SAG, N-methyl-N′-(3-pyridinylbenzyl)-N′-(3-chlorobenzo[b]thiophene-2-carbonyl)-1,4-diaminocyclohexane] | collapse of aggregates was hardly observed |  |  |  | 
O=C(NOC[C@H](O)CO)c1ccc(F)c(F)c1Nc1ccc(I)cc1F [PD0325901] |  | collapse of aggregates was hardly observed | collapse of aggregates was observed | Collapse of aggregates was not observed | Pax6, Chx10 co-positive cells were confirmed
